We go through three compounds from patent US20130310440A1, “METHOD FOR TREATING NON-SMALL CELL LUNG CANCER” (TEVA PHARMACEUTICAL INDUSTRIES LTD., priority 2012, published 2013).

Data set [1] deals with NSCLC. To be noted: patients treated with docetaxel in the 2nd line setting; cited from earlier work.
The conditions of data set [2]: cited from earlier work.
Data set [3] deals with CYP3A4 (Homo sapiens, UniProt P08684). To be noted: cited from earlier work.
For data set [4] the following is noted: human, in vivo; cited from earlier work.
Data set [5] relates to Stage IV Non-Squamous Non-Small Cell Lung Cancer. As to the kind of experiment: Phase III study: paclitaxel/carboplatin with or without custirsen (Examples 1 and 2). It is filed as in vivo, human. The text has this: Subjects randomized to the custirsen arm first receive three doses of custirsen in a 5 to 9 day loading dose period prior to Day 1 of Cycle 1. Subjects randomized to both study arms have 21-day chemotherapy cycles until disease progression, unacceptable toxicity, or completion of 6 cycles; however, subjects randomized to the custirsen arm also receive weekly doses of custirsen starting at Day 1 of each of the 21-day chemotherapy cycles until disease progression, unacceptable toxicity, or completion of all 6 cycles.
This is a randomized, open-label, sponsor-blinded multinational trial. Treatment consists of paclitaxel/carboplatin/custirsen vs. paclitaxel/carboplatin, which compose the two arms of the study.
After a screening period of up to 28 days, subjects are randomly assigned with equal probability to the two arms. Stratified randomization is used in order to minimize between-arm imbalance over four stratification factors: Gender, Eastern Cooperative Oncology Group (ECOG) performance status (0 vs. 1), Smoking status (former/current smoker vs. never-smoker) and Geographical Region (North America, Europe and Southeast Asia).
Subjects randomized to the custirsen arm have a 5 to 9 day loading dose period prior to Day 1 of Cycle 1. […] Subjects who are removed from study treatment for any reason other than disease progression or death are followed for documented disease progression. Once disease progression is documented, subjects enter a survival follow-up phase during which data is collected regarding further cancer treatment and their survival status.
Tumor response to study treatment and disease progression is based on the criteria proposed by the Response Evaluation Criteria in Solid Tumors (RECIST) 1.1 guidelines. All subjects undergo CT or MRI scans of the chest and upper abdomen, as well as any other areas clinically indicated, at screening, then every 6 weeks, starting at week 8 for the first 26 weeks (week 8, 14, 20 and 26) and then every 12 weeks after the week 26 scan until disease progression. These time points are kept within a window of +one week, regardless of the treatment schedule. The week 26 scan is performed as scheduled, regardless of whether the patient is still in the treatment period (i.e. due to treatment delays) or has already completed the end of treatment visit. Once a patient is discontinued from study treatment for documented disease progression, scanning is no longer required. Assessment of these scans is carried out in a blinded fashion, by a Central Imaging Lab.
Adverse events are recorded at each visit during the study and 28 days after the last dose of study treatment. Medical history is assessed at screening and an electrocardiogram is performed. Physical examination, assessment of the ECOG performance status, vital signs and laboratory evaluations are conducted at screening and throughout the study. Adverse events are recorded from when a subject is signed the Informed Consent Form and throughout the study, until the end of the treatment visit (28 days following last dose). They are reviewed and updated at each subsequent visit and during any phone contact with the subject.
The general health status, as reported by the subjects is assessed by the EuroQoL (EQ-5D) and FACT-L questionnaires. Medical resource utilization is also compared between the treatment arms. The EQ-5D is a standardized instrument for use as a measure of health outcome. Applicable to a wide range of health conditions and treatments, it provides a simple descriptive profile and a single index value for health status that can be used in the clinical and economic evaluation of health care as well as population health surveys. EQ-5D is designed for self-completion by subjects. In this study the instrument is self-administrated.
640 mg in 250 mL normal saline IV over 2 hours.
Carboplatin AUC 6.0 mg/ml/min IV over 30 minutes.
The primary outcome measure is overall survival (OS). […]

Data set [6] deals with stage IIIB or IV NSCLC. The experiment in a line: Phase 1-2 study of weekly custirsen plus a gemcitabine/platinum-based regimen: survival by serum clusterin. It is filed as in vivo, human. The conditions noted are these: for median survival time: plus gemcitabine/platinum. As for the experimental part:
The relationship between serum clusterin levels and the duration of individual survival was evaluated during a phase 1-2 study of weekly custirsen plus a gemcitabine/platinum-based regimen in patients with stage IIIB or IV NSCLC. Not all of the patients in this study had baseline levels of clusterin measured. However, starting with N=69 subjects with measured baseline clusterin levels, fitting the Cox proportional hazards (PH) model with baseline clusterin as sole predictor gives p=0.10; the coefficient is positive, so that higher clusterin is associated with increased survival risk. Among the N=55 subjects who also had post-baseline data collected, fitting the same PH model gives p=0.05, again with positive coefficient.
A careful search for possible cutpoints, using all N=69 subjects with baseline clusterin levels, produced 71 μg/mL as a strong candidate.
Among all N=69 subjects with a baseline clusterin level, there were […] with clusterin ≦71 μg/mL (median survival time was 18.8 months), and N=26 subjects with baseline clusterin >71 μg/mL (median survival time was 10.2 months); the log-rank p-value=0.004. Removing the N=14 early discontinuers leaves N=35 subjects with baseline clusterin ≦71 μg/mL (median survival time was 28.7 months), and N=20 subjects with baseline clusterin >71 μg/mL (median survival time was 12.2 months); the log-rank p-value=0.0002.
To further assess the relevance of baseline clusterin as a predictor of survival, data from the study were further segregated based on average and minimum clusterin levels achieved during treatment.

In data set [7] the test system is Advanced or Metastatic (Stage IV) Non Small Cell Lung Cancer. As to the kind of experiment: Phase III study: custirsen plus docetaxel versus docetaxel, second line (Example 3). It is filed as in vivo, human. The text has this: A Multinational, Randomized, Open-Label Phase III Study of Custirsen (TV-1011/OGX-011) In Combination With Docetaxel Versus Docetaxel As A Second-Line Treatment In Patients with Advanced or Metastatic (Stage IV) Non Small Cell Lung Cancer.
Patients randomized to the custirsen arm (Arm A) have 3 doses of custirsen administered in a 5 to 9 day Loading Dose Period prior to Day 1 of Cycle 1. Patients in Arm A receive custirsen on Days 1, 8 and 15, and docetaxel on Day 1 of the 21-day cycles. Patients in Arm B receive only docetaxel on Day 1 of the 21-day cycles. Patients randomized to both arms have 21-day chemotherapy cycles until disease progression, unacceptable toxicity, withdrawal of consent or protocol specified parameters to stop treatment.
After a screening period of up to 28 days, patients are randomized 1:1 to receive either docetaxel and custirsen (Arm A) or docetaxel (Arm B). Randomization is stratified by gender (male vs. female), NSCLC histology (squamous vs. non-squamous), best overall response to the first-line platinum-based therapy (SD/CR/PR vs. PD) and ECOG PS (0 vs. 1) to minimize imbalance at randomization. Patients randomized to Arm A receive 3 doses of custirsen administered in a 5 to 9 day Loading Dose Period prior to Day 1 of Cycle 1. Following the Loading Dose period, patients in Arm A receive custirsen on Days 1, 8 and 15, and docetaxel on Day 1 of the 21-day cycle. Patients in Arm B receive only docetaxel on Day 1 of the 21-day cycle. Patients randomized to both study arms have 21-day chemotherapy cycles until disease progression, unacceptable toxicity, withdrawal from study treatment, or protocol specified parameters to stop treatment. Patients who are removed from study treatment for any reason other than disease progression or death are followed for documented radiological disease progression. All patients who discontinued study treatment are followed to collect further anticancer treatment and survival information until death, loss to follow-up, withdrawal of consent, or up to 12 months after the end of treatment visit for the last patient on the study, whichever comes first.
Tumor response to study treatment and disease progression are based on the criteria proposed by the Response Evaluation Criteria in Solid Tumors (RECIST) guideline (version 1.1). All patients undergo CT or MRI scans of the chest and upper abdomen, as well as any other areas clinically indicated, at screening, then every 6 weeks, starting at week 8 after randomization until disease progression. Tumor measurement is also performed during the end of treatment visit if it is not done within the previous 6 weeks. Patients who discontinue study treatment for reasons other than disease progression continue to have tumor measurements per RECIST v1.1 until disease progression, start of new anticancer therapy, withdrawal of consent, lost to follow-up, or death, whichever occurs first. Assessment of these scans is carried out in a blinded fashion, by a Central Imaging Lab designated by the Sponsor.
Adverse events and concomitant medications are collected throughout the study up to 28 days after the last dose of study treatment. Medical history is assessed, documented results of EGFR and KRAS mutation status are collected, if available, and an electrocardiogram is performed at screening. Physical examination, assessment of the ECOG Performance Status, vital signs, and laboratory evaluations are conducted at screening and throughout the study.
The general health status, as reported by the patients, are assessed by the Functional Assessment of Cancer Therapy-Lung (FACT-L) questionnaire.
Study Agent: Three loading doses of custirsen 640 mg IV over 2 hours administered in 5 to 9 days prior to Day 1 of Cycle 1, then custirsen 640 mg IV over 2 hours on Days 1, 8 and 15 of a 21-day cycle.
Chemotherapy: Docetaxel 75 mg/m^2 IV over 1 hour on Day 1 of a 21-day cycle. […]

The conditions of data set [8]: in vivo.
Procedure: Three doses of 640 mg custirsen are administered IV during the Loading Dose Period (Days −9 to −1). There is at least one “non-infusion” day between each administration of custirsen (i.e. every other day) during the Loading Dose Period and between the third loading dose of custirsen and Day 1 of Cycle 1. The day prior to Day 1 of Cycle 1 (Day 0) is a “no treatment” day. There are no more than 4 days between the last loading dose and Day 1 of Cycle 1. A common schedule is to give the three loading doses of custirsen on Monday, Wednesday and Friday with Day 1, Cycle 1 starting on the following Monday. Up to nine days are allowed for completing the three loading doses prior to Day 0 to account for clinic visits, weekends, and holidays. Subjects receive each dose of custirsen as a 2 hour infusion.
The test system of data set [9] is clusterin. To be noted: cited from earlier work.
Data set [10] concerns cancerous human prostate, breast, ovarian, lung, renal, bladder, and melanoma cells. The conditions noted are these: cited from earlier work.

Like-named read-outs stand apart in the source and are kept apart here. In the oligonucleotide strings, read from the 5' end, every base follows the letter of its sugar. An asterisk marks phosphorothioate; unmarked linkages are phosphodiester. Other units and linkages are bracketed, terminal groups are in braces. A string of capitals states the bases alone. e = 2'-O-(2-methoxyethyl) (MOE); [5mC] = 5-methylcytosine; d = 2'-deoxy (DNA)

Chain of CYP3A4 (P08684 whole entry): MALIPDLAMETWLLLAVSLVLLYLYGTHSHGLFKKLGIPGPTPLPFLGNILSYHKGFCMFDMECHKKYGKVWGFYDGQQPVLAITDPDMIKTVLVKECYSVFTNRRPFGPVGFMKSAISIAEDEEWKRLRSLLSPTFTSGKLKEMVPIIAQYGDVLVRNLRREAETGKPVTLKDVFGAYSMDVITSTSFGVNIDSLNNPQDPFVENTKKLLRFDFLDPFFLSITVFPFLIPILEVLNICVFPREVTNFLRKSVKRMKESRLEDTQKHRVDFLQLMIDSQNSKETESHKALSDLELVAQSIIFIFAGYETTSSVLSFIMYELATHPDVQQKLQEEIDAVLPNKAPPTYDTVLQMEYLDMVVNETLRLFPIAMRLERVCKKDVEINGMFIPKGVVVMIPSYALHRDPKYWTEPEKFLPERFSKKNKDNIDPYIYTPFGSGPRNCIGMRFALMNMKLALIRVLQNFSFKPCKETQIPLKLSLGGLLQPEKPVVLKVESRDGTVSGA

For the compound `CC(=O)O[C@@]12CO[C@@H]1C[C@H](O)[C@@]1(C)C(=O)[C@H](O)C3=C(C)[C@@H](OC(=O)[C@H](O)[C@@H](NC(=O)OC(C)(C)C)c4ccccc4)C[C@@](O)([C@@H](OC(=O)c4ccccc4)[C@H]21)C3(C)C` [Docetaxel], the “median PFS” value in data set [1] is listed as “about 3 months”. The “grade 4 neutropenia (<500 cells/mm^3), patients affected” value in [2] (60 mg/m^2) is 75%; in data set [2] (100 mg/m^2) it was 85%. Besides, in data set [2] (60-100 mg/m^2), the “Neutropenia (<2,000 neutrophils/mm3), patients affected” value is listed as “virtually all patients”. In data set [2] (abnormal liver function, higher doses, or NSCLC with prior platinum-based chemotherapy, single agent 100 mg/m^2), the “incidence of treatment-related mortality” value is listed as “increased”. Besides, in data set [2] (human, in vivo), the “most common side effects” value was “infections, neutropenia, anemia, febrile neutropenia, hypersensitivity, thrombocytopenia, neuropathy, dysgeusia, dyspnea, constipation, anorexia, nail disorders, fluid retention, asthenia, pain, nausea, diarrhea, vomiting, mucositis, alopecia, skin reactions and myalgia”. Moreover, in [3], the CYP3A4 substrate status result is “CYP3A4 substrate”.
Turning to `N.N.O=C([O-])C1(C(=O)[O-])CCC1.[Pt+2]` [carboplatin, Carboplatin], the major dose-limiting toxicity entry in data set [4] is recorded as “Bone marrow suppression”.
Turning to “custirsen: anti-clusterin antisense oligonucleotide CAGCAGCAGAGTCTTCATCAT (Seq. ID No.: 1), phosphorothioate backbone, 2′-O-methoxyethyl at nucleotides 1-4 and 18-21, 5-methylcytosines at 1, 4, 19 (antisense e[5mC]*eA*eG*e[5mC]*dA*dG*dC*dA*dG*dA*dG*dT*dC*dT*dT*dC*dA*eT*e[5mC]*eA*eT; listed as Homo sapiens)”, the overall survival entry in data set [5] (Arm A (custirsen+paclitaxel/carboplatin) compared to Arm B (paclitaxel/carboplatin)) and in [7] (Arm A (custirsen+docetaxel) compared to Arm B (docetaxel)) was “prolonged survival” each time. In addition, the progression free survival entry in data set [5] (Arm A compared to Arm B) and in [7] (Arm A compared to Arm B) was “increased” in each case. The “proportion of subjects surviving free of progression for at least 14 weeks” value in data set [5] (Arm A compared to Arm B) and in data set [7] (Arm A compared to Arm B) was “statistically significant higher proportion” each time. In addition, the quality of life result in data set [5] (Arm A compared to Arm B) and in data set [7] (Arm A compared to Arm B) was “improves” throughout. Also, the “symptoms of NSCLC (chest pain, pleural effusions, pulmonary edema, dyspnea, hemoptysis)” value in data set [5] (Arm A compared to Arm B) and in data set [7] (Arm A compared to Arm B) was “occasionally improve” each time. Moreover, the “survival by baseline serum clusterin” value in data set [5] (Arm A patients, baseline clusterin below 71 μg/mL versus above 71 μg/mL) is “tend to survive longer”. Besides, the safety and tolerability entry in data set [5] (custirsen 640 mg IV + paclitaxel/carboplatin (Arm A)) is “safe and well tolerated”; in [7] (custirsen 640 mg IV + docetaxel 75 mg/m^2 (Arm A)), “safe and well tolerated”. Besides, the “probability of extended survival by baseline and on-treatment clusterin” value in [6] (low baseline clusterin (71 μg/mL cutpoint) and low levels during therapy (33 μg/mL average or 30 μg/mL minimum cutpoint)) was “greatest probability of extended survival”. The median survival time in [6] (all subjects with baseline clusterin level, clusterin >71 μg/mL (N=26)) was found to be 10.2 months; in data set [6] (all subjects with baseline clusterin level, clusterin ≦71 μg/mL (N=45)), 18.8 months; in data set [6] (early discontinuers removed, baseline clusterin >71 μg/mL (N=20)), 12.2 months; in data set [6] (early discontinuers removed, baseline clusterin ≦71 μg/mL (N=35)), 28.7 months. Also, the “grade 1-2 constitutional symptoms (e.g., fever and chills), subjects affected” value in data set [8] is 50-60%. In data set [9], the expression of clusterin entry is recorded as “potently reduces the expression of clusterin”. For the same compound, the apoptosis result in data set [10] is given as “facilitates apoptosis”. In data set [10], the “sensitization of cancer cells to chemotherapy” value is recorded as “sensitizes”.
